Data taken from PMC3344384 (Chemistry & biology, 2011).
Values joined by “and” are separate entries in the source; they are usually repeats but may differ in a detail not shown here. Equal values may be shown once.

Columns and labels:
Ub-PCNA in HEK293T cells = test: Western blot of Ub-PCNA level in cells; type: cell-based, human
[1] = test system: Ub-FANCD2 in HEK293T cells; test: Western blot of Ub-FANCD2 level in cells; type: cell-based, human
USP46/UAF1 = USP46/UAF1 (Homo sapiens, UniProt P62068); test: K63-linked diubiquitin cleavage assay, USP46/UAF1; type: biochemical
caspase-1 = target: T1, caspase-1 (Homo sapiens, UniProt P29466); test: cysteine protease selectivity, caspase-1; type: biochemical
T1 sequence (P29466 120-297 limits assumed): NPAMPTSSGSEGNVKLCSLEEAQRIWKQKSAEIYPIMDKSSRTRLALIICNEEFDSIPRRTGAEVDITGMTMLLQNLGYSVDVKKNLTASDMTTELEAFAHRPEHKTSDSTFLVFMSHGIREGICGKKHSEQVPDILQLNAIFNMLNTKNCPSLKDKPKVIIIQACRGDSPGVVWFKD
T1 sequence (P29466 317-404 limits assumed): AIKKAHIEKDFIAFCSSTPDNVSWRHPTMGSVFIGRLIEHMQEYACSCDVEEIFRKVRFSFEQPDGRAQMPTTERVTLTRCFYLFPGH

USP1/UAF1 [2] = target: USP1/UAF1 (Homo sapiens, UniProt O94782); test: gel-based K63-linked diubiquitin cleavage assay, USP1/UAF1; type: biochemical; conditions: IC50 USP1/UAF1, K63-linked diubiquitin substrate; NI = no significant inhibition at highest inhibitor concentration of 114 μM
caspase-3 = target: T2, caspase-3 (Homo sapiens, UniProt P42574); test: cysteine protease selectivity, caspase-3; type: biochemical
T2 sequence (P42574 29-175 limits assumed): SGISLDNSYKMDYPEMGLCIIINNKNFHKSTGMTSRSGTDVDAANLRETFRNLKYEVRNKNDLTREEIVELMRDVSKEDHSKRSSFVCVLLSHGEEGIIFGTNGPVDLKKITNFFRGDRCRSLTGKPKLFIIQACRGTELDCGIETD
T2 sequence (P42574 176-277 limits assumed): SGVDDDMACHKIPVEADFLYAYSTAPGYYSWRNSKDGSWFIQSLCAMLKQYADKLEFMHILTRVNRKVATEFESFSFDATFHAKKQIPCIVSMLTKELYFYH

caspase-6 = target: T3, caspase-6 (Homo sapiens, UniProt P55212); test: cysteine protease selectivity, caspase-6; type: biochemical
T3 sequence (P55212 24-179 limits assumed): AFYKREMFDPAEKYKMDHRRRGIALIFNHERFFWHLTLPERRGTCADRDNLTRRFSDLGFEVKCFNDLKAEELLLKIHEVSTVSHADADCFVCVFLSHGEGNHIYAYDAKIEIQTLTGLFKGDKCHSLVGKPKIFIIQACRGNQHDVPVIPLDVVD
T3 sequence (P55212 194-293 limits assumed): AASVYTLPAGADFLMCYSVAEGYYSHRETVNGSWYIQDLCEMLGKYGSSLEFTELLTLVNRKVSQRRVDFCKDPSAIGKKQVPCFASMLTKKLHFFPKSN

USP1/UAF1 [3] = target: USP1/UAF1 (Homo sapiens, UniProt O94782+Q8TAF3); test: reversibility of inhibition by rapid dilution; conditions: incubation at 10 times IC50, 100-fold rapid dilution
USP5 = target: T4, USP5 (Homo sapiens, UniProt P45974); test: K63-linked diubiquitin cleavage assay, USP5
T4 sequence (P45974 1-858): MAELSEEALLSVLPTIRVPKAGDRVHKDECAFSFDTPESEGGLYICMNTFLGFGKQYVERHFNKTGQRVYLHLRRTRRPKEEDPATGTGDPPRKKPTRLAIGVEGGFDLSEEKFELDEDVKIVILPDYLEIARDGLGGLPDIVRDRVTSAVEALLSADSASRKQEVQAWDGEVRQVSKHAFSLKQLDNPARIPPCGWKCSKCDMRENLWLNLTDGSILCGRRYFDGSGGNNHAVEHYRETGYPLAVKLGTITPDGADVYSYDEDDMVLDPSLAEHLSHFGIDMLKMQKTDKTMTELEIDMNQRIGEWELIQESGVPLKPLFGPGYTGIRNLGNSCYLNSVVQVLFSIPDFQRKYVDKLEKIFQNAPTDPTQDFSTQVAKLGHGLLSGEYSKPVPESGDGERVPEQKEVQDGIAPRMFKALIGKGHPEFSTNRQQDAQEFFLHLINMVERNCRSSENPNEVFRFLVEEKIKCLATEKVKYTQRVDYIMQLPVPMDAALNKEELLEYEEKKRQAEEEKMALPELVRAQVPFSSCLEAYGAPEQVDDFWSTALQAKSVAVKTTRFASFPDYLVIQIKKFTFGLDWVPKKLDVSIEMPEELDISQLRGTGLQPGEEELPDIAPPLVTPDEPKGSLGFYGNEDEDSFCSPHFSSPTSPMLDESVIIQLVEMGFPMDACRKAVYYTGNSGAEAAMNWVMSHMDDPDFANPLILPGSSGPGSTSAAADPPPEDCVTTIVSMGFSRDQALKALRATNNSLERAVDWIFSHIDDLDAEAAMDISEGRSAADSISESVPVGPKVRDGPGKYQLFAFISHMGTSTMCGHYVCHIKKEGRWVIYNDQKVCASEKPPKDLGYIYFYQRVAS

papain = target: T5, papain (Carica papaya, UniProt P00784); test: cysteine protease selectivity, papain; type: biochemical
T5 sequence (P00784 134-345): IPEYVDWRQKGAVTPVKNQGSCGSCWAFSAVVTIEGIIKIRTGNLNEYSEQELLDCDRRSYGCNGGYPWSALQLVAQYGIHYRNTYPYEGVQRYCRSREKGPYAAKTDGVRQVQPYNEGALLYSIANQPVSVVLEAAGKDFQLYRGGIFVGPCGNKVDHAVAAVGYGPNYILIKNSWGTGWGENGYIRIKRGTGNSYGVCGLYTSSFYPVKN

Chain of USP1/UAF1 (Homo sapiens, UniProt O94782) (O94782 whole entry): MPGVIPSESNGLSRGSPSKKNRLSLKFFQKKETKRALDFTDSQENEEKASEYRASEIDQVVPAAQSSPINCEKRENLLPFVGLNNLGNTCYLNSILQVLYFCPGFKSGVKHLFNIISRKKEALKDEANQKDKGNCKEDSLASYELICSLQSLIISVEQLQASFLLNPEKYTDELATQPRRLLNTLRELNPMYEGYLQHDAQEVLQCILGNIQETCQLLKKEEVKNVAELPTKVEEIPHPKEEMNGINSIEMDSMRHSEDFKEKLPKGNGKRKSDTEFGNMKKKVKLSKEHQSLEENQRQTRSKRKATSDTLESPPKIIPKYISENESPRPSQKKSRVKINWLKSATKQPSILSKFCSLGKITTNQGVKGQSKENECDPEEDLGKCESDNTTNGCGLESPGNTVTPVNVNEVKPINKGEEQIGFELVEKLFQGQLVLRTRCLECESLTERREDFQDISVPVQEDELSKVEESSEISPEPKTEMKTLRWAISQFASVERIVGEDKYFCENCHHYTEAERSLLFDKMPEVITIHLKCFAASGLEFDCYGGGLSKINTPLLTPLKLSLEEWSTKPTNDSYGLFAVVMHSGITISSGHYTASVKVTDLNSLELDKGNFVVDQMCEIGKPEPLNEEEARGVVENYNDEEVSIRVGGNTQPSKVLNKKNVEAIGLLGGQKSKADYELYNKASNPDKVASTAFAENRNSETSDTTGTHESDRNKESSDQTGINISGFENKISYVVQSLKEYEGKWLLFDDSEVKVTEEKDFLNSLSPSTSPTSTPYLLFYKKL
Chain of USP1/UAF1 (Homo sapiens, UniProt O94782) (Q8TAF3 whole entry, further chain): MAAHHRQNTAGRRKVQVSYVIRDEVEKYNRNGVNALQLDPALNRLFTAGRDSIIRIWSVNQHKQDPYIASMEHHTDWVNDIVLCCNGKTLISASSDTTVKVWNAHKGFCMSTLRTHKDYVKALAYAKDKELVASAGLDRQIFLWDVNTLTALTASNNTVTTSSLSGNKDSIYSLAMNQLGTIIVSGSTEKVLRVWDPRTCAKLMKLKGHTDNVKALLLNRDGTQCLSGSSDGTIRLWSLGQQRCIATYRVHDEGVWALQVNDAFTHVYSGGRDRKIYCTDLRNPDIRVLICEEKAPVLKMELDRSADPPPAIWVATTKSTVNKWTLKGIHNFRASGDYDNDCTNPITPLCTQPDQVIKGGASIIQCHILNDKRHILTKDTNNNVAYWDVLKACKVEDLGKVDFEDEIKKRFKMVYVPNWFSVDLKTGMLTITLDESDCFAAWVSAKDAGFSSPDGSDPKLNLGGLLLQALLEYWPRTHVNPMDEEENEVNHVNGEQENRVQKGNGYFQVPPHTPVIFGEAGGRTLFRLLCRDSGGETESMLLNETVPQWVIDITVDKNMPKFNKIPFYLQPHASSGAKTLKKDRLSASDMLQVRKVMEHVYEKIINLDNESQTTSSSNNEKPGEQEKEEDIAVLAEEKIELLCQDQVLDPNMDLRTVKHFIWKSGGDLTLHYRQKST
Chain of USP46/UAF1 (P62068 whole entry): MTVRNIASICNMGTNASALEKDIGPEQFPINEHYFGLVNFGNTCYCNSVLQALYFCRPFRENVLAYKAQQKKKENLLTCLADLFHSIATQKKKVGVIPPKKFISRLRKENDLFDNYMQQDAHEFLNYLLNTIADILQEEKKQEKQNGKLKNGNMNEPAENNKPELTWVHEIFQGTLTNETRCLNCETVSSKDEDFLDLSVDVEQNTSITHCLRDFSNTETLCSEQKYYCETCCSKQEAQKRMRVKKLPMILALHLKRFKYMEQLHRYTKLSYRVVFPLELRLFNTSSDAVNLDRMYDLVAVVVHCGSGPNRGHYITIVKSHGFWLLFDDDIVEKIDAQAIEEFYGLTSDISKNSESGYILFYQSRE
Chain of USP46/UAF1 (Q8TAF3 whole entry partner): as the sequence (Q8TAF3 whole entry, further chain) above
Chain of USP1/UAF1 (Homo sapiens, UniProt O94782+Q8TAF3) (O94782 whole entry): as the sequence (O94782 whole entry) above
Chain of USP1/UAF1 (Homo sapiens, UniProt O94782+Q8TAF3) (Q8TAF3 whole entry): as the sequence (Q8TAF3 whole entry, further chain) above

| Compound | monoubiquitination of PCNA, single agent (Ub-PCNA in HEK293T cells) | percentage of FANCD2 monoubiquitinated [1] | IC50 (USP46/UAF1) | IC50 (caspase-1) | IC50 (USP1/UAF1 [2]) | IC50 (caspase-3) | IC50 (caspase-6) | reversibility of inhibition (USP1/UAF1 [3]) | IC50 (USP5) | IC50 (papain) |
| --- | --- | --- | --- | --- | --- | --- | --- | --- | --- | --- |
| N.N.[Cl][Pt][Cl] [Cisplatin, cisplatin] | a small, but significant, percent of Ub-PCNA was detected | approximately 25% | – | – | – | – | – | – | – | – |
| CC(=O)c1c(O)c(C)c(O)c(Cc2c(O)c3c(c(C(=O)/C=C/c4ccccc4)c2O)OC(C)(C)C=C3)c1O [Rottlerin, rottlerin] | – | – | 15 ± 1 µM | 5 to 45 µM | ≤ 8 µM and 6 to 34 µM | 5 to 45 µM | 5 to 45 µM | irreversible inhibitor | > 114 µM | 5 to 45 µM |
